Measurements as given in patent publication US20250325552A1, “SUBSTITUTED THIADIAZOLYL DERIVATIVES AS DNA POLYMERASE THETA INHIBITORS” (IDEAYA Biosciences, Inc., priority 2020, published 2025).

Each compound was assayed against Polθ theta (1-899) (hPolQ) (Homo sapiens (Human), UniProt O75417) (assay: Biological Assay 1: Polθ ATPase activity, NADH oxidation-coupled enzymatic assay (10 nM enzyme, 30 min)). Details: Polθ (1-899) 10 nM, 100 μM ATP, 300 nM dT50 ssDNA; Examples 1 to 268; read-out: ATPase NADH coupling:Standard Screening:hPolQ IC50.
Assay type: biochemical
How it was run: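 Polθ (1-899) at 10 nM was preincubated with compound for 15 min at room temperature in 20 mM Tris pH 7.80, 80 mM KCl, 10 mM MgCl2. An equal volume of 100 μM ATP, 300 nM dT50 ssDNA and a PK/LDH–NADH coupling system was then added. A340 was read each minute for 30 min. IC50 came from rate slopes over 10-point series with a four-parameter fit.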

Chain of Polθ theta (1-899) (hPolQ) (O75417 1-899): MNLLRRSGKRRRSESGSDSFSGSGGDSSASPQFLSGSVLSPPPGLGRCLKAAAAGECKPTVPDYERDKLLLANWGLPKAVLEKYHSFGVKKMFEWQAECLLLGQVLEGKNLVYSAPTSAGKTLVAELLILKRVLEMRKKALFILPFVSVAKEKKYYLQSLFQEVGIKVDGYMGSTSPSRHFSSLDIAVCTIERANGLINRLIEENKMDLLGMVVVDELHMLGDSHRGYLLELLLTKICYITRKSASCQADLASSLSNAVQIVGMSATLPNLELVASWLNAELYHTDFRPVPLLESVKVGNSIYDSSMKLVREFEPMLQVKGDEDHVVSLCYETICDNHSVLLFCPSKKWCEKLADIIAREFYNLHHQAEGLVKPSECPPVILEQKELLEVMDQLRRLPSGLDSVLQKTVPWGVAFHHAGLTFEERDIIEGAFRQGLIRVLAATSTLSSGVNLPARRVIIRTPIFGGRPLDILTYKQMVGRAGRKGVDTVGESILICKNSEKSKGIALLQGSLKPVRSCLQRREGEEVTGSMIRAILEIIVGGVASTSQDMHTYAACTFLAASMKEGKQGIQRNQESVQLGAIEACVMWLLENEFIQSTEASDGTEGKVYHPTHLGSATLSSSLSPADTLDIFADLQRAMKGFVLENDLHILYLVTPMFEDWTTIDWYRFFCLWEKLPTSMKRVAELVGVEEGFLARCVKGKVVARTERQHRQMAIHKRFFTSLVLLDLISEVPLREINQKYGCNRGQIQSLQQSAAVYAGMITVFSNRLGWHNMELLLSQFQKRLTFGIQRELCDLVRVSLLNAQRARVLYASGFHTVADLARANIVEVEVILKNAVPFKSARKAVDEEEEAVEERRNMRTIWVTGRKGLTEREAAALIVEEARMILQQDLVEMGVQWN

Compound	IC50 [nM]
COc1ccc(COc2nnc(NC(=O)c3cnc(C)cc3-c3c(F)cccc3OC)s2)nc1 [Example 20, 4-(2-fluoro-6-methoxyphenyl)-N-(5-((5-methoxypyridin-2-yl)methoxy)-1,3,4-thiadiazol-2-yl)-6-methylpyridine-3-carboxamide]	≤ 200
COCc1ccc(COc2nnc(NC(=O)c3cnc(C)cc3-c3c(F)cccc3OC)s2)nc1 [Example 34, 4-(2-fluoro-6-methoxyphenyl)-N-(5-((5-(methoxymethyl)pyridin-2-yl)methoxy)-1,3,4-thiadiazol-2-yl)-6-methylnicotinamide]	≤ 200
COc1cnc(Cl)cc1-c1cc(C)ncc1C(=O)Nc1nnc(OCC2COC2)s1 [Example 164, 2′-chloro-5′-methoxy-6-methyl-N-(5-(oxetan-3-ylmethoxy)-1,3,4-thiadiazol-2-yl)-(4,4′-bipyridine)-3-carboxamide]	≤ 200
COc1cnc(Cl)cc1-c1cc(C)ncc1C(=O)Nc1nnc(OCC23CC(C(C)(C)F)(C2)C3)s1 [Example 163, 2′-chloro-N-(5-((3-(2-fluoropropan-2-yl)bicyclo(1.1.1)pentan-1-yl)methoxy)-1,3,4-thiadiazol-2-yl)-5′-methoxy-6-methyl-(4,4′-bipyridine)-3-carboxamide]	≤ 200
COc1cnc(Cl)cc1-c1cc(C)ncc1C(=O)Nc1nnc(OCC2COC(C)(C)C2)s1 (stereo in doubt) [Example 189, (S)-2′-chloro-N-(5-((5,5-dimethyltetrahydrofuran-3-yl)methoxy)-1,3,4-thiadiazol-2-yl)-5′-methoxy-6-methyl-(4,4′-bipyridine)-3-carboxamide]	≤ 200
COc1ccc(COc2nnc(NC(=O)c3cnc(C)cc3-c3ccccc3OC(F)F)s2)nc1 [Example 53, 4-(2-(difluoromethoxy)phenyl)-N-(5-((5-methoxypyridin-2-yl)methoxy)-1,3,4-thiadiazol-2-yl)-6-methylnicotinamide]	≤ 200
COc1cnc(Cl)cc1-c1cc(C)ncc1C(=O)Nc1nnc(OCC2CCN(C)C2)s1 (centres unmarked) [Example 176, 2′-chloro-5′-methoxy-6-methyl-N-(5-((1-methylpyrrolidin-3-yl)methoxy)-1,3,4-thiadiazol-2-yl)-(4,4′-bipyridine)-3-carboxamide]	200 to 500
Cc1cc(-c2ccccc2OC(F)F)c(C(=O)Nc2nnc(OCc3ccc(C(C)(C)O)cn3)s2)cn1 [Example 59, 4-(2-(difluoromethoxy)phenyl)-N-(5-((5-(2-hydroxypropan-2-yl)pyridin-2-yl)methoxy)-1,3,4-thiadiazol-2-yl)-6-methylnicotinamide]	≤ 200
COc1ccc(C)cc1-c1cc(C)ncc1C(=O)Nc1nnc(OCc2ccc(Cl)cn2)s1 [Example 44, N-(5-((5-chloropyridin-2-yl)methoxy)-1,3,4-thiadiazol-2-yl)-4-(2-methoxy-5-methylphenyl)-6-methylpyridine-3-carboxamide]	≤ 200
COc1cccc(F)c1-c1cc(C)ncc1C(=O)Nc1nnc(OCC23CCC(O)(CC2)C3)s1 [Example 112, 4-(2-fluoro-6-methoxyphenyl)-N-(5-((4-hydroxybicyclo(2.2.1)heptan-1-yl)methoxy)-1,3,4-thiadiazol-2-yl)-6-methylpyridine-3-carboxamide]	≤ 200
COc1cnc(C)cc1-c1cc(C)ncc1C(=O)Nc1nnc(OCc2ccc(OC(C)C)cn2)s1 [Example 74, N-(5-((5-isopropoxypyridin-2-yl)methoxy)-1,3,4-thiadiazol-2-yl)-5′-methoxy-2′,6-dimethyl-(4,4′-bipyridine)-3-carboxamide]	≤ 200

Second part, the compound after the results:

IC50 [nM]	Compound
≤ 200	COc1cnc(Cl)cc1-c1cc(C)ncc1C(=O)Nc1nnc(OCC2CS(=O)(=O)C2)s1 [Example 166, 2′-chloro-N-(5-((1,1-dioxidothietan-3-yl)methoxy)-1,3,4-thiadiazol-2-yl)-5′-methoxy-6-methyl-(4,4′-bipyridine)-3-carboxamide]
≤ 200	COc1cccc(F)c1-c1cc(C)ncc1C(=O)Nc1nnc(OCC2CC3(CC(O)C3)C2)s1 (centres unmarked) [Example 141, 4-(2-fluoro-6-methoxyphenyl)-N-(5-((6-hydroxyspiro(3.3)heptan-2-yl)methoxy)-1,3,4-thiadiazol-2-yl)-6-methylpyridine-3-carboxamide]
≤ 200	COc1ccc(COc2nnc(NC(=O)c3cnc(C)cc3-c3c(F)cccc3OC(F)F)s2)nc1 [Example 46, 4-(2-(difluoromethoxy)-6-fluorophenyl)-N-(5-((5-methoxypyridin-2-yl)methoxy)-1,3,4-thiadiazol-2-yl)-6-methylnicotinamide]
≤ 200	COc1cccc(F)c1-c1cc(C)ncc1C(=O)Nc1nnc(OCc2cnc([C@@H](C)O)cn2)s1 [Example 111, 4-(2-fluoro-6-methoxyphenyl)-N-(5-((5-((R)-1-hydroxyethyl)pyrazin-2-yl)methoxy)-1,3,4-thiadiazol-2-yl)-6-methylnicotinamide]
≤ 200	COc1cnc(Cl)cc1-c1cc(C)ncc1C(=O)Nc1nnc(OCC2CCOC2)s1 (stereo in doubt) [Example 170, (R)-2′-chloro-5′-methoxy-6-methyl-N-(5-((tetrahydrofuran-3-yl)methoxy)-1,3,4-thiadiazol-2-yl)-(4,4′-bipyridine)-3-carboxamide]
≤ 200	Cc1cc(-c2cc(Cl)ncc2OC(F)F)c(C(=O)Nc2nnc(OC[C@@H]3COCCO3)s2)cn1 [Example 233, (S)—N-(5-((1,4-dioxan-2-yl)methoxy)-1,3,4-thiadiazol-2-yl)-2′-chloro-5′-(difluoromethoxy)-6-methyl-(4,4′-bipyridine)-3-carboxamide]
≤ 200	COc1ccnc(COc2nnc(NC(=O)c3cnc(C)cc3-c3c(F)cccc3OC)s2)c1 [Example 67, 4-(2-fluoro-6-methoxyphenyl)-N-(5-((4-methoxypyridin-2-yl)methoxy)-1,3,4-thiadiazol-2-yl)-6-methylnicotinamide]
≤ 200	COc1cnc(Br)cc1-c1cc(C)ncc1C(=O)Nc1nnc(OC[C@H]2COCCO2)s1 [Example 236, (R)—N-(5-((1,4-dioxan-2-yl)methoxy)-1,3,4-thiadiazol-2-yl)-2′-bromo-5′-methoxy-6-methyl-(4,4′-bipyridine)-3-carboxamide]
≤ 200	COc1cnc(Cl)cc1-c1cc(C)ncc1C(=O)Nc1nnc(OCC2(C)COC2)s1 [Example 162, 2′-chloro-5′-methoxy-6-methyl-N-(5-((3-methyloxetan-3-yl)methoxy)-1,3,4-thiadiazol-2-yl)-(4,4′-bipyridine)-3-carboxamide]
≤ 200	COc1cccc(F)c1-c1cc(C)ncc1C(=O)Nc1nnc(OCC23CC(C#N)(C2)C3)s1 [Example 95, N-(5-((3-cyanobicyclo(1.1.1)pentan-1-yl)methoxy)-1,3,4-thiadiazol-2-yl)-4-(2-fluoro-6-methoxyphenyl)-6-methylpyridine-3-carboxamide]
≤ 200	COc1cnc(Cl)cc1-c1cc(C)ncc1C(=O)Nc1nnc(OCC2CCC2(F)F)s1 (centres unmarked) [Example 204, 2′-chloro-N-(5-((2,2-difluorocyclobutyl)methoxy)-1,3,4-thiadiazol-2-yl)-5′-methoxy-6-methyl-(4,4′-bipyridine)-3-carboxamide]
≤ 200	COc1cnc(Cl)cc1-c1cc(C)ncc1C(=O)Nc1nnc(OC[C@@H]2CC[C@@H](O)C2)s1 (single isomer, unassigned) [Example 209]
